By IC50 is commonly meant the concentration that gives 50% inhibition.

The target of the test is T1, Axl (Homo sapiens, UniProt P30530).
T1 construct: endogenous in cells; host or cells: HeLa cells
T1 sequence (P30530 26-894): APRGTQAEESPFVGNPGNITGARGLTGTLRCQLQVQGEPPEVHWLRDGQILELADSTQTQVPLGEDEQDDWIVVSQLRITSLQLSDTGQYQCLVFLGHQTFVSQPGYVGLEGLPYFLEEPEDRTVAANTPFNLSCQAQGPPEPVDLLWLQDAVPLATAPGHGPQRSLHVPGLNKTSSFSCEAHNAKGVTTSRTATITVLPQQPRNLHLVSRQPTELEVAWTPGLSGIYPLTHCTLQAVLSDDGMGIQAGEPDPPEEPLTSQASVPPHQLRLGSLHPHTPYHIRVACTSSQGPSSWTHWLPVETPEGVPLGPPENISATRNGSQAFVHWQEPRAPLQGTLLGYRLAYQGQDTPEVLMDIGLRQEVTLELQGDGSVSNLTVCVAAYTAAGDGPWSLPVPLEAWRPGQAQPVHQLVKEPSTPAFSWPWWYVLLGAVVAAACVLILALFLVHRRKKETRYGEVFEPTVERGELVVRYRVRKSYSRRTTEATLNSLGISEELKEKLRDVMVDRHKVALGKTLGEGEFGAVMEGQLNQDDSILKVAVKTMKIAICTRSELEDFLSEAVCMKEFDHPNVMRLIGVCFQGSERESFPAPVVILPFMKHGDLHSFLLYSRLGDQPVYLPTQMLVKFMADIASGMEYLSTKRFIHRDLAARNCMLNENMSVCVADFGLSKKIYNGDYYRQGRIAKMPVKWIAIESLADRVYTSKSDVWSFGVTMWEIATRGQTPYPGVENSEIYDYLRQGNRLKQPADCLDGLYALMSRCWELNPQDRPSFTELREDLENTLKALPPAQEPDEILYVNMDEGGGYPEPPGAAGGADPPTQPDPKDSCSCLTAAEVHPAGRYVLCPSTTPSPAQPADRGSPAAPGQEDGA
Nature of the test: Phospho-Akt in-cell Western assay. In kind it is cell-based. Conditions: Hela cells, stimulated by Axl-antibody cross-linking, phospho-Akt chemiluminescence. In outline:
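HeLa cells on poly-L-lysine, starved 24 h in 0.5% FCS with 500 ng/mL Axl/Fc, pre-treated with compound 1 hr at 37° C, then stimulated 5 min by cross-linked anti-Axl antibody clusters. Fixed cells probed for phospho-Akt by in-cell Western with HRP chemiluminescence, read within 10 min.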

Compound `Nc1nc(Nc2ccc3c(c2)CC[C@@H](NCc2cccc(Br)c2)CC3)nn1-c1cc2c(nn1)-c1ccccc1CCC2` [Compound 30, 1-(6,7-dihydro-5H-benzo[6,7]cyclohepta[1,2-c]pyridazin-3-yl)-N^3-((7S)-7-((3-bromophenyl)methyl)amino-6,7,8,9-tetrahydro-5H-benzo[7]annulene-2-yl)-1H-1,2,4-triazole-3,5-diamine] showed an IC50 (Table 1, formula (Ia)) of 1000 to 10000 nM.

With `Nc1nc(Nc2cccc3c2CCC(N2CCCC2)CC3)n(-c2cc3c(nn2)-c2ccccc2CCC3)n1` (stereo not drawn) [Compound 12, 1-(6,7-dihydro-5H-benzo[6,7]cyclohepta[1,2-c]pyridazin-3-yl)-N^5-(7-(pyrrolidin-1-yl)-6,7,8,9-tetrahydro-5H-benzo[7]annulene-1-yl)-1H-1,2,4-triazole-3,5-diamine], where the note is “Table 2, formula (Ib)”, the IC50 is below 1000 nM.

Compound `CCC(CC)N[C@H]1CCc2ccc(Nc3nc(N)n(-c4cc5c(nn4)-c4ccccc4CCC5)n3)cc2CC1` [Compound 33, 1-(6,7-dihydro-5H-benzo[6,7]cyclohepta[1,2-c]pyridazin-3-yl)-N^3-((7S)-7-(3-pentylamino)-6,7,8,9-tetrahydro-5H-benzo[7]annulene-2-yl)-1H-1,2,4-triazole-3,5-diamine] came in with an IC50 (Table 1, formula (Ia)) below 1000 nM.

`Nc1nc(Nc2ccc3c(c2)CC[C@@H](NCC2CCCC2)CC3)nn1-c1cc2c(nn1)-c1ccccc1CCC2` [Compound 36, 1-(6,7-dihydro-5H-benzo[6,7]cyclohepta[1,2-c]pyridazin-3-yl)-N^3-((7S)-7-((cyclopentylmethyl)amino)-6,7,8,9-tetrahydro-5H-benzo[7]annulene-2-yl)-1H-1,2,4-triazole-3,5-diamine] gave an IC50 (Table 1, formula (Ia)) below 1000 nM.

`Nc1nc(Nc2ccc3c(c2)CC[C@@H](NC2CCCCC2)CC3)nn1-c1cc2c(nn1)-c1cccnc1CCC2` [Compound 53, 1-(6,7-dihydro-5H-pyrido[2′,3′:6,7]cyclohepta[1,2-c]pyridazin-3-yl)-N^3-((7S)-7-(cyclohexylamino)-6,7,8,9-tetrahydro-5H-benzo[7]annulene-2-yl)-1H-1,2,4-triazole-3,5-diamine] came in with an IC50 (Table 1, formula (Ia)) below 1000 nM.

Under “Table 1, formula (Ia)”, `CCCN(CCC)[C@H]1CCc2ccc(Nc3nc(N)n(-c4cc5c(nn4)-c4cccnc4CCC5)n3)cc2CC1` [Compound 49, 1-(6,7-dihydro-5H-pyrido[2′,3′:6,7]cyclohepta[1,2-c]pyridazin-3-yl)-N^3-((7S)-7-(dipropylamino)-6,7,8,9-tetrahydro-5H-benzo[7]annulene-2-yl)-1H-1,2,4-triazole-3,5-diamine] registered an IC50 below 1000 nM.

`CC(C)CN[C@H]1CCc2ccc(Nc3nc(N)n(-c4cc5c(nn4)-c4ccccc4CCC5)n3)cc2CC1` [Compound 17, 1-(6,7-dihydro-5H-benzo[6,7]cyclohepta[1,2-c]pyridazin-3-yl)-N^3-((7S)-7-((2-methylpropyl)amino)-6,7,8,9-tetrahydro-5H-benzo[7]annulene-2-yl)-1H-1,2,4-triazole-3,5-diamine] had an IC50 (Table 1, formula (Ia)) below 1000 nM.

For the setting “Table 1, formula (Ia)”, `CCC(CC)CN[C@H]1CCc2ccc(Nc3nc(N)n(-c4cc5c(nn4)-c4ccccc4CCC5)n3)cc2CC1` [Compound 41, 1-(6,7-dihydro-5H-benzo[6,7]cyclohepta[1,2-c]pyridazin-3-yl)-N^3-((7S)-7-(2-ethylbutylamino)-6,7,8,9-tetrahydro-5H-benzo[7]annulene-2-yl)-1H-1,2,4-triazole-3,5-diamine] returned an IC50 below 1000 nM.

Compound `Nc1nc(Nc2ccc(N3CCC(N4CCCC4)CC3)c(F)c2)nn1-c1cc2c(nn1)-c1cccnc1CCC2` [Compound 45, 1-(6,7-dihydro-5H-pyrido[2′,3′:6,7]cyclohepta[1,2-c]pyridazin-3-yl)-N^3-(3-fluoro-4-(4-(pyrrolidin-1-yl)piperidin-1-yl)phenyl)-1H-1,2,4-triazole-3,5-diamine] registered an IC50 (Table 3, formula (II)) above 20000 nM.

Compound `CN(CC(=O)O)C1CCc2ccc(Nc3nc(N)n(-c4cc5c(nn4)-c4ccccc4CCC5)n3)cc2CC1` (stereo not drawn) [Compound 8, 1-(6,7-dihydro-5H-benzo[6,7]cyclohepta[1,2-c]pyridazin-3-yl)-N^3-(7-((carboxymethyl)(methyl)amino)-6,7,8,9-tetrahydro-5H-benzo[7]annulene-2-yl)-1H-1,2,4-triazole-3,5-diamine] returned an IC50 (Table 1, formula (Ia)) of 1000 to 10000 nM.

`Nc1nc(Nc2ccc3c(c2)CC[C@@H](N)CC3)nn1-c1cc2c(nn1)-c1ccccc1CCC2` [Compound 15, 1-(6,7-dihydro-5H-benzo[6,7]cyclohepta[1,2-c]pyridazin-3-yl)-N^3-((7S)-7-amino-6,7,8,9-tetrahydro-5H-benzo[7]annulene-2-yl)-1H-1,2,4-triazole-3,5-diamine] gave an IC50 (Table 1, formula (Ia)) of 1000 to 10000 nM.

The compound `CCCN(CCC)[C@H]1CCc2ccc(Nc3nc(N)n(-c4cc5c(nn4)-c4ccccc4CCC5)n3)cc2CC1` [Compound 19, 1-(6,7-dihydro-5H-benzo[6,7]cyclohepta[1,2-c]pyridazin-3-yl)-N^3-((7S)-7-(dipropylamino)-6,7,8,9-tetrahydro-5H-benzo[7]annulene-2-yl)-1H-1,2,4-triazole-3,5-diamine] had an IC50 (Table 1, formula (Ia)) below 1000 nM.

For `Nc1nc(Nc2ccc3c(c2)CC[C@@H](N(CC2CCCC2)CC2CCCC2)CC3)nn1-c1cc2c(nn1)-c1ccccc1CCC2` [Compound 35, 1-(6,7-dihydro-5H-benzo[6,7]cyclohepta[1,2-c]pyridazin-3-yl)-N^3-((7S)-7-(di(cyclopentylmethyl)amino)-6,7,8,9-tetrahydro-5H-benzo[7]annulene-2-yl)-1H-1,2,4-triazole-3,5-diamine], the 50% inhibitory concentration (IC50) (Table 1, formula (Ia)) lay within 1000 to 10000 nM.

As for `CC=CCN(CCCC)[C@H]1CCc2ccc(Nc3nc(N)n(-c4cc5c(nn4)-c4ccccc4CCC5)n3)cc2CC1` [Compound 43, 1-(6,7-dihydro-5H-benzo[6,7]cyclohepta[1,2-c]pyridazin-3-yl)-N^3-((7S)-7-(butyl(but-2-enyl)amino)-6,7,8,9-tetrahydro-5H-benzo[7]annulene-2-yl)-1H-1,2,4-triazole-3,5-diamine], the IC50 (Table 1, formula (Ia)) is below 1000 nM.

For the compound `CCOC(=O)C1CCN(C2CCc3ccc(Nc4nc(N)n(-c5cc6c(nn5)-c5ccccc5CCC6)n4)cc3CC2)CC1` (stereo not drawn) [Compound 6, 1-(6,7-dihydro-5H-benzo[6,7]cyclohepta[1,2-c]pyridazin-3-yl)-N^3-(7-(4-(ethoxycarbonyl)piperidin-1-yl)-6,7,8,9-tetrahydro-5H-benzo[7]annulene-2-yl)-1H-1,2,4-triazole-3,5-diamine], under “Table 1, formula (Ia)”, the IC50 was below 1000 nM.

For the origin of these results see patent US9173882B2, “Polycyclic heteroaryl substituted triazoles useful as Axl inhibitors” (Rigel Pharmaceuticals, Inc., priority 2008, dated 2015).
